What was measured:
[1] = system: human airway epithelial cells (HAE); assay type: cell-based; settings: for Ad gene transfer: Ad-GFP MOI=250 combined 1:1 with reagent, apical 2 hours, imaged 5 days, LPC 0.1%, EGTA 250 mM, doxorubicin 5 μM, NaCl 3.6%, Infasurf; for Ad-GFP gene transfer at 1-7% tonicities: Ad-GFP MOI=250, apical 2 h, 5 days
[2] = system: human airway epithelial cells (HAE); assay: Transepithelial electrical resistance (TEER) of HAE after apical reagent; assay type: cell-based; settings: apical 5 minutes; LPC 0.1%, EGTA 250 mM, doxorubicin 5 μM, NaCl 3.6%, Infasurf 35 mg/ml
Procedure: The University of Iowa In Vitro Models and Cell Culture Core cultured and maintained human airway epithelial cells (HAE) as previously described (33). Briefly, following enzymatic disassociation of trachea and bronchus epithelia, the cells were seeded onto collagen-coated, polycarbonate transwell inserts (0.4 μm pore size; surface area=0.33 cm^2; Corning Costar, Cambridge, MA). HAE were submerged in Ultroser G (USG) medium for 24 hours (37° C. and 5% CO2) at which point the apical media is removed to encourage polarization and differentiation at an air-liquid interface. Transepithelial electrical resistance was measured using an Ohmmeter […]
Disrupting the epithelial tight junctions allows Ad5-based viral vectors access to their basolaterally localized coxsackie and adenovirus receptor (CXADR) (12). Unless otherwise specified, these studies use the Ad5 serotype. […] First, reagents were applied to the apical surface of HAE for 5 minutes and then TEER was measured using an ohmmeter. […] In separate cultures, Ad-GFP (MOI=250) in 50 μl of DMEM combined 1:1 with the test reagents was applied to the apical surface for 2 hours. 5 days post-treatment, cells were imaged by fluorescence microscopy.

[3] = Osmolarity and pH of the solutions; assay type: physicochemical
[4] = system: human airway epithelia (HAE); assay: Endosomal acidification inhibitors on NaCl enhanced Ad5-GFP transduction; assay type: cell-based; settings: pre-treated 2 h with CQ 200 μM or bafilomycin A1 1 μM; Ad5-GFP MOI=250 with NaCl 3.6%
From the text: GFP expression was quantified by flow cytometry 5 days later. […] GFP was quantified 5 days post-transduction.

Molecule: O=C(O)CN(CCOCCOCCN(CC(=O)O)CC(=O)O)CC(=O)O [EGTA]
- Ad gene transfer [1]: increased gene transfer
- transepithelial electrical resistance (TEER) [2]: reduced TEER

Molecule: [Cl-].[K+] [KCl, potassium chloride]
- Ad-GFP gene transfer at 1-7% tonicities [1]: Dose-dependent increases
- Osmolarity ([3]; 1% solution): 268 mOsmol/l
- Osmolarity ([3]; 2% solution): 537 mOsmol/l
- Osmolarity ([3]; 3% solution): 805 mOsmol/l
- Osmolarity ([3]; 3.6% solution): 970 mOsmol/l
- Osmolarity ([3]; 4% solution): 1073 mOsmol/l
- Osmolarity ([3]; 5% solution): 1341 mOsmol/l
- Osmolarity ([3]; 6% solution): 1610 mOsmol/l
- Osmolarity ([3]; 7% solution): 1878 mOsmol/l

Molecule: O=C([O-])[C@H](O)[C@@H](O)[C@H](O)[C@H](O)CO.[Na+] [NaGluconate, sodium gluconate]
- Osmolarity ([3]; 3.6% solution): 120 mOsmol/l

Molecule: CO/C1=C\C(C)=C\[C@@H](C)[C@@H](O)[C@@H](C)C/C(C)=C/C=C/[C@H](OC)[C@@H]([C@@H](C)[C@@H](O)[C@H](C)[C@@]2(O)C[C@@H](O)[C@H](C)[C@@H](C(C)C)O2)OC1=O [bafilomycin A1]
- NaCl enhanced Ad5-GFP transduction after inhibitor [4]: significantly decreased

Molecule: CCN(CC)CCCC(C)Nc1ccnc2cc(Cl)ccc12 (stereo not shown) [chloroquine]
- NaCl enhanced Ad5-GFP transduction after inhibitor [4]: significantly decreased

Molecule: COc1cccc2c1C(=O)c1c(O)c3c(c(O)c1C2=O)C[C@@](O)(C(=O)CO)C[C@@H]3O[C@H]1C[C@H](N)[C@H](O)[C@H](C)O1 [doxorubicin]
- Ad gene transfer [1]: did not enhance Ad gene transfer
- transepithelial electrical resistance (TEER) [2]: decreased TEER

Molecule: OC[C@@H](O)[C@@H](O)[C@H](O)[C@H](O)CO [mannitol]
- Ad-GFP gene transfer at 1-7% tonicities [1]: did not enhance gene transfer
- Osmolarity ([3]; 1% solution): 55 mOsmol/l
- Osmolarity ([3]; 2% solution): 110 mOsmol/l
- Osmolarity ([3]; 3% solution): 170 mOsmol/l
- Osmolarity ([3]; 4% solution): 220 mOsmol/l
- Osmolarity ([3]; 5% solution): 270 mOsmol/l
- Osmolarity ([3]; 6% solution): 330 mOsmol/l
- Osmolarity ([3]; 7% solution): 380 mOsmol/l

Molecule: N-methyl-d-glucamine gluconate [NMDG gluconate]
- Ad-GFP gene transfer at 1-7% tonicities [1]: Dose-dependent increases
- Osmolarity ([3]; 1% solution): 342 mOsmol/l
- Osmolarity ([3]; 2% solution): 684 mOsmol/l
- Osmolarity ([3]; 3% solution): 1027 mOsmol/l
- Osmolarity ([3]; 4% solution): 1369 mOsmol/l
- Osmolarity ([3]; 5% solution): 1711 mOsmol/l
- Osmolarity ([3]; 6% solution): 2053 mOsmol/l
- Osmolarity ([3]; 7% solution): 3693 mOsmol/l

Molecule: lysophosphatidylcholine [LPC]
- Ad gene transfer [1]: increased gene transfer
- transepithelial electrical resistance (TEER) [2]: reduced TEER
